Here are results for 25 compounds from patent US5952328A, “Benzothiazo and related heterocyclic group-containing cysteine and serine protease inhibitors” (Cephalon, Inc., priority 1997, dated 1999).

As usually defined, the IC50 is the point on the concentration scale where inhibition reaches its midpoint.

The target of one test is T1, Calpain I (Homo sapiens, UniProt P07384).
T1 construct: made in house
T1 sequence (P07384 1-714): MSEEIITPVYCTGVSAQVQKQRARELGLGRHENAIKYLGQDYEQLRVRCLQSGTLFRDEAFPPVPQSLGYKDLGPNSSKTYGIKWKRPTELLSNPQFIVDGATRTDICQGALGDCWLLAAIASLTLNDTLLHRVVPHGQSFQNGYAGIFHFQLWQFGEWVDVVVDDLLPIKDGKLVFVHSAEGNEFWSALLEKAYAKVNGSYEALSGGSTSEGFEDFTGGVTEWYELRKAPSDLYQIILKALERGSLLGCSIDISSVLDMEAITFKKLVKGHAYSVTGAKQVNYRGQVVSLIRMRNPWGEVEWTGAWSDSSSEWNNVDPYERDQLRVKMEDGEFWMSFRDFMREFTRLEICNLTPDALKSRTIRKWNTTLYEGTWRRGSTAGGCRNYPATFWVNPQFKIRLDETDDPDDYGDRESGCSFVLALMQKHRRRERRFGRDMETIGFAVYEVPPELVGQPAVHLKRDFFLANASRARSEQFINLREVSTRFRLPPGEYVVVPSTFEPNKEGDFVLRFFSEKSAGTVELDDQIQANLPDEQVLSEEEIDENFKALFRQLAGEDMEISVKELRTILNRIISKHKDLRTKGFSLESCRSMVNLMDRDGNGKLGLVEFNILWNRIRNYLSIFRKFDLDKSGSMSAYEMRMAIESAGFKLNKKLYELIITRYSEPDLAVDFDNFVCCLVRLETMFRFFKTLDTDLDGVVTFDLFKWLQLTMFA
T1 sequence (P04632 1-268 partner): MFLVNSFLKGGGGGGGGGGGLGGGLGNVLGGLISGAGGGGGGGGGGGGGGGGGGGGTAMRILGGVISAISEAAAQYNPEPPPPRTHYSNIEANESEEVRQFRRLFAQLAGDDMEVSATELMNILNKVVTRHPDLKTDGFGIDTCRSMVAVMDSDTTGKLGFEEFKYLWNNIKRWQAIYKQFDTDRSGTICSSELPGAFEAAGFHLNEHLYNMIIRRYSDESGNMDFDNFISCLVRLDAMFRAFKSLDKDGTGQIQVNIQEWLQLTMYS
As to the kind of experiment: Inhibition of calpain I activity (Succ-Leu-Tyr-MNA substrate hydrolysis, fluorescence). The test is classed as biochemical. As to conditions: Table II; calpain I, 0.2 mM Succ-Leu-Tyr-MNA, pH 7.5; * mixture of diastereomers, a,b single diastereomers; read-out: IC50. On the procedure:
To evaluate inhibitory activity, stock solutions (40 times concentrated) of each compound to be tested were prepared in 100% anhydrous DMSO and […] of each inhibitor preparation were aliquoted into each of three wells of a 96-well plate. Calpain I, prepared by a modification of the method of W. J. Lee et al. (Biochem. […] To start the reaction, […] of 50 mM CaCl2 in assay buffer was added to each of the wells of the plate, excepting three, which were used as background signal baseline controls. Substrate hydrolysis was monitored every 5 minutes for a total of 30 minutes using a Fluoroskan II fluorescence plate reader. […] Inhibition of calpain I activity was calculated as the percent decrease in the rate of substrate hydrolysis in the presence of inhibitor relative to the rate in its absence. Comparison between the inhibited and control rates was made within the linear range for substrate hydrolysis. For screening, compounds were tested at […]. […] The results were plotted as percent inhibition versus log inhibitor concentration, and the IC50 was calculated from linear regression of the data.
Regarding `COc1cc2c(cc1OC)S(=O)(=O)NC(C(=O)N[C@H](C=O)Cc1ccccc1)C2` (single isomer, unassigned) [Cpd 12c, N-(3,4-Dihydro-6,7-dimethoxy-2H-1,2-benzothiazine-3-carbonyl)-L-phenylalaninal 1,1-dioxide], the IC50 was around 800 nM. Still for that read-out and setting: in the case of `COc1cc2c(cc1OC)S(=O)(=O)NC(C(=O)N[C@H](C=O)Cc1ccccc1)C2` (single isomer, unassigned) [Cpd 12d, N-(3,4-Dihydro-6,7-dimethoxy-2H-1,2-benzothiazine-3-carbonyl)-L-phenylalaninal 1,1-dioxide] it was around 700 nM. Same read-out and setting: the figure for `COc1cc2c(cc1OC)S(=O)(=O)OC(C(=O)N[C@H](C=O)CC(C)C)C2` (stereo partly drawn) [Cpd 12a, N-(3,4-Dihydro-6,7-dimethoxy-2,1-benzoxathiin-3-carbonyl)-L-leucinal 1,1-dioxide] is 130 nM; for `CN1C(C(=O)N[C@H](C=O)Cc2ccccc2)Cc2cc(N3CCOCC3)ccc2S1(=O)=O` (stereo partly drawn) [Cpd 12aa, N-(3,4-Dihydro-6-(4-morpholino)-2-methyl-2H-1,2-benzothiazine-3-carbonyl)-L-phenylalaninal 1,1-dioxide] it is 30 nM; for `COc1cc2c(cc1OC)S(=O)(=O)OC(C(=O)N[C@H](C=O)Cc1ccccc1)C2` (stereo partly drawn) [Cpd 12b, N-(3,4-Dihydro-6,7-dimethoxy-2,1-benzoxathiin-3-carbonyl)-L-phenylalaninal 1,1-dioxide] it is 51 nM. As for `COc1cc2c(cc1OC)S(=O)(=O)N(C)C(C(=O)N[C@H](C=O)Cc1ccccc1)C2` (stereo partly drawn) [Cpd 12e, N-(3,4-Dihydro-6,7-dimethoxy-2-methyl-2H-1,2-benzothiazine-3-carbonyl)-L-phenylalaninal 1,1-dioxide], the IC50 came to 200 nM. Same read-out and setting: in the case of `COc1cc2c(cc1OC)S(=O)(=O)N(C)C(C(=O)N[C@H](C=O)Cc1ccccc1)C2` (stereo partly drawn) [Cpd 12f, N-(3,4-Dihydro-6,7-dimethoxy-2-methyl-2H-1,2-benzothiazine-3-carbonyl)-L-phenylalaninal 1,1-dioxide] it was 38 nM.

Consider `COc1cc2c(cc1OC)S(=O)(=O)N(Cc1ccccc1)C(C(=O)N[C@H](C=O)Cc1ccccc1)C2` (stereo partly drawn) [Cpd 12g, N-(2-Benzyl-3,4-dihydro-6,7-dimnethoxy-2H-1,2-benzothiazine-3-carbonyl)-L-phenylalaninal 1,1-dioxide], for which the IC50 is around 1000 nM. In the case of `COc1cc2c(cc1OC)S(=O)(=O)N(Cc1ccccc1)C(C(=O)N[C@H](C=O)Cc1ccccc1)C2` (stereo partly drawn) [Cpd 12h, N-(2-Benzyl-3,4-dihydro-6,7-dimethoxy-2H-1,2-benzothiazine-3-carbonyl)-L-phenylalaninal 1,1-dioxide], the IC50 is 150 nM. With `CN1C(C(=O)N[C@H](C=O)Cc2ccccc2)Cc2ccccc2S1(=O)=O` (stereo partly drawn) [Cpd 12i, N-(3,4-Dihydro-2-methyl-2H-1,2-benzothiazine-3-carbonyl)-L-phenylalaninal 1,1-dioxide], the IC50 is 28 nM. On the same count and under the same terms, in the case of `CN1C(C(=O)N[C@H](C=O)Cc2ccccc2)Cc2ccccc2S1(=O)=O` (stereo partly drawn) [Cpd 12j, N-(3,4-Dihydro-2-methyl-2H-1,2-benzothiazine-3-carbonyl)-L-phenylalaninal 1,1-dioxide] it was 110 nM; in that of `CC(C)CN1C(C(=O)N[C@H](C=O)Cc2ccccc2)Cc2cc(Cl)ccc2S1(=O)=O` (stereo partly drawn) [Cpd 12n, N-(3,4-Dihydro-6-chloro-2-isobutyl-2H-1,2-benzothiazine-3-carbonyl)-L-phenylalaninal 1,1-dioxide], around 200 nM.

Regarding `CN1C(C(=O)N[C@H](C=O)Cc2ccccc2)Cc2cc(Cl)ccc2S1(=O)=O` (stereo partly drawn) [Cpd 12p, N-(6-Chloro-3,4-dihydro-2-methyl-2H-1,2-benzothiazine-3-carbonyl)-L-phenylalaninal 1,1-dioxide], the IC50 came out at 5 nM. For `CN1C(C(=O)N[C@H](C=O)Cc2ccccc2)Cc2cc(Cl)ccc2S1(=O)=O` (stereo partly drawn) [Cpd 12q, N-(6-Chloro-3,4-dihydro-2-methyl-2H-1,2-benzothiazine-3-carbonyl)-L-phenylalaninal 1,1-dioxide], the IC50 was determined as 15 nM.

Turning to `CN1C(C(=O)N[C@H](C=O)Cc2ccccc2)Cc2cc3c(cc2S1(=O)=O)OCCO3` (stereo partly drawn) [Cpd 12r, N-(3,4-Dihydro-6,7-ethylenedioxy-2-methyl-2H-1,2-benzothiazine-3-carbonyl)-L-phenylalaninal 1,1-dioxide], the IC50 was 24 nM. The same measure, in the same setting: the figure for `CC(C)N1C(C(=O)N[C@H](C=O)Cc2ccccc2)Cc2cc3c(cc2S1(=O)=O)OCCO3` (stereo partly drawn) [Cpd 12u, N-(3,4-Dihydro-6,7-ethylenedioxy-2-isopropyl-2H-1,2-benzothiazine-3-carbonyl)-L-phenylalaninal 1,1-dioxide] is 30 nM. For the compound `CN1C(C(=O)N[C@H](C=O)CCCCNS(=O)(=O)c2ccccc2)Cc2cc3c(cc2S1(=O)=O)OCCO3` (stereo partly drawn) [Cpd 12x, Nα -(3,4-Dihydro-6,7-ethylenedioxy-2-methyl-2H-1,2-benzothiazine-3-carbonyl)-L-Nε -(benzenesulfonyl)lysinal 1,1-dioxide], the IC50 was 36 nM. Same read-out and setting: the figure for `CN1C(C(=O)N[C@H](C=O)CCCCNS(=O)(=O)c2ccccc2)Cc2cc3c(cc2S1(=O)=O)OCCO3` (stereo partly drawn) [Cpd 12y, Nα -(3,4-Dihydro-6,7-ethylenedioxy-2-methyl-2H-1,2-benzothiazine-3-carbonyl)-L-Nε -(benzenesulfonyl)lysinal 1,1-dioxide] is 107 nM.

Still in this test, the particulars now being: Table V; calpain I, 0.2 mM Succ-Leu-Tyr-MNA, pH 7.5; * mixture of diastereomers, a,b single diastereomers; read-out: IC50.
Consider `CCCN1c2ccccc2S(=O)(=O)N(CC)C1C(=O)N[C@H](C=O)Cc1ccccc1` (single isomer, unassigned) [Cpd 35a, N-(3,4-Dihydro-2-ethyl-4-propyl-2H-1,2,4-benzothiadiazine-3-carbonyl)-L-phenylalaninal 1,1-dioxide], for which the IC50 was around 1000 nM. The same measure, in the same setting: the figure for `CCCN1c2ccccc2S(=O)(=O)N(CC)C1C(=O)N[C@H](C=O)Cc1ccccc1` (single isomer, unassigned) [Cpd 35b, N-(3,4-Dihydro-2-ethyl-4-propyl-2H-1,2,4-benzothiadiazine-3-carbonyl)-L-phenylalaninal 1,1-dioxide] is around 3000 nM; for `CCN1C(C(=O)N[C@H](C=O)Cc2ccccc2)N(Cc2ccccc2)c2ccccc2S1(=O)=O` (single isomer, unassigned) [Cpd 35c, N-(3,4-Dihydro-2-ethyl-4-benzyl-2H-1,2,4-benzothiadiazine-3-carbonyl)-L-phenylalaninal 1,1-dioxide] it is around 10000 nM. For the compound `CCN1C(C(=O)N[C@H](C=O)Cc2ccccc2)N(Cc2ccccc2)c2ccccc2S1(=O)=O` (single isomer, unassigned) [Cpd 35d, N-(3,4-Dihydro-2-ethyl-4-benzyl-2H-1,2,4-benzothiadiazine-3-carbonyl)-L-phenylalaninal 1,1-dioxide], the IC50 is around 1000 nM.

The same test, now with this note: Table VII; calpain I, 0.2 mM Succ-Leu-Tyr-MNA, pH 7.5; a,b single diastereomers; read-out: IC50.
For the compound `O=C[C@H](Cc1ccccc1)NC(=O)C1Cc2ccccc2C(=O)N1` (single isomer, unassigned) [Cpd 50a, N-(1-Oxo-1,2,3,4-tetrahydroisoquinoline-3-carbonyl)-L-phenylalaninal], the IC50 is around 5000 nM. The same measure, in the same setting: the figure for `O=C[C@H](Cc1ccccc1)NC(=O)C1Cc2ccccc2C(=O)N1` (single isomer, unassigned) [Cpd 50b, N-(1-Oxo-1,2,3,4-tetrahydroisoquinoline-3-carbonyl)-L-phenylalaninal] is around 5000 nM; for `CN1C(=O)c2ccccc2CC1C(=O)N[C@H](C=O)Cc1ccccc1` (single isomer, unassigned) [Cpd 50c, N-(1-Oxo-2-methyl-1,2,3,4-tetrahydroisoquinoline-3-carbonyl)-L-phenylalaninal] it is around 1000 nM.
